# In patent publication US9914983B2, “Apoptosis-inducing agent” (Nitto Denko Corporation, priority 2012, dated 2018):
# Columns and labels:
# [1] = biological target: Akt1 (Homo sapiens, UniProt P31749); details: known from literature (Barnett 2005, Lindsley 2005, Zhao 2005); cited from earlier work
# [2] = biological target: Akt2 (Homo sapiens, UniProt P31751); details: known from literature (Barnett 2005, Lindsley 2005, Zhao 2005); cited from earlier work
# [3] = biological target: Akt3 (Homo sapiens, UniProt Q9Y243); details: known from literature (Barnett 2005, Lindsley 2005, Zhao 2005); cited from earlier work
# Sequence of Akt3 (Q9Y243 whole entry, species assumed): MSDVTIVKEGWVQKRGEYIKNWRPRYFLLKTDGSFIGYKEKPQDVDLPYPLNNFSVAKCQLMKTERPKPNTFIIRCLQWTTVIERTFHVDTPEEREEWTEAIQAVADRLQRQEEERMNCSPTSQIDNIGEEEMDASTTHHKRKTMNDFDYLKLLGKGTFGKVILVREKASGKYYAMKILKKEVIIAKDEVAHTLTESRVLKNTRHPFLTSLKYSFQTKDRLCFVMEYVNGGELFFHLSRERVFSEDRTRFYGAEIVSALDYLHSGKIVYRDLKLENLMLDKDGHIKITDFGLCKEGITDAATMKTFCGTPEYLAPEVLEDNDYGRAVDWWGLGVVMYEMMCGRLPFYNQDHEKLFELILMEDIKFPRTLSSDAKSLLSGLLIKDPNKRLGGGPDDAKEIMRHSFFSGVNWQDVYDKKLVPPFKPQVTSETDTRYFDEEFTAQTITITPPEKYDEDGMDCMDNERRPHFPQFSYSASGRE
# [4] = tested on: A549 cells; experiment: Cell proliferation (cell counting) after siRNA knockdown in A549 cells; format: cell-based; details: 10 to 50 nM siRNA tested, cell number 4 days after transfection, FIG. 2
# Protocol: (§1) 1×10^6 PANC-1 cells were plated on a 10 cm dish, and culturing was carried out in Roswell Park Memorial Institute 1640 (RPMI 1640, Sigma), to which 10% fetal bovine serum (Fetal bovine serum, FBS) and 5% L-glutamine were added, for 18 hours. Culturing conditions were 37° C. and 5% CO2 unless otherwise specified. Furthermore, 1×10^6 A549 cells were plated on a 10 cm dish, and culturing was carried out in Dulbecco's modified Eagle's medium (DMEM, Sigma), to which 10% FBS and 10% L-glutamine were added, for 18 hours. […]
# (§2) In order to optimize the concentration of siRNA, a final concentration of 10 to 50 nM of GST-π siRNA or Akt siRNA was added to a dish containing PANC-1 cells or A549 cells flushed with 10 mL of PTI-MEM, culturing was carried out at room temperature for 5 hours, the medium was replaced (RPMI 1640 containing 5% FBS for PANC-1 cells and DMEM containing 10% FBS for A549 cells), and culturing was carried out for 2 hours. […] Subsequently, every 24 hours, the cells were detached by treatment with trypsin and harvested from the dish, and the number of cells was counted.
# (§3) In order to test the effect when GST-π siRNA and Akt siRNA are made to act at the same time, a Lipofectamine/siRNA mixed solution in which GST-π siRNA and Akt siRNA were mixed was added to each of the cells in the same way as above, and the number of cells was counted. […]
# [5] = tested on: PANC-1 cells; experiment: Autophagy by western blot of LC3 type I/type II shift in PANC-1 cells; format: cell-based; details: each siRNA 10 nM, 3 days culture, FIG. 6
# Protocol: 1×10^6 PANC-1 cells were plated on a 10 cm dish, and culturing was carried out in RPMI 1640, to which 10% FBS and 5% L-glutamine were added, for 24 hours. […] The cells on the dish were washed with ice-cooled PBS, and an ice-cooled Lysis buffer was then added to thus break the cells. The Lysis buffer was prepared by mixing 100 μL of NP-40 Alternative, PROTEIN GRADE® Detergent, 10% Solution, Sterile-Filtered (CALBIOCHEM), 500 μL of 1 M Tris-HCl (pH 7.5), 300 μL of 5 M NaCl, 20 μL of 0.5 M EDTA, and […] of sterile water. The cell lysate was collected using a cell scraper and ice-cooled for 30 minutes. During this process, inversion mixing was carried out every 10 minutes. The solution thus obtained was subjected to centrifugation at 15000 rpm and 4° C. for 15 minutes, and the supernatant was collected, thus giving a cell extract. This cell extract was subjected to western blot analysis. A reaction with a transfer membrane was carried out at 4° C. for 16 hours using anti-LC3B antibody (SIGMA) as a primary antibody. Detection of LC3 molecules was carried out using a chemiluminescent reagent after a reaction with HRP-labeled secondary antibody. Whether or not autophagy was induced was evaluated by a shift to LC3 type I (18 kDa) and type II (16 kDa).
# [6] = tested on: PANC-1 cells; experiment: Cell morphology / dead cells after siRNA knockdown in PANC-1 cells; format: cell-based; details: double knockdown compared with single
# Protocol: 1×10^6 PANC-1 cells were plated on a 10 cm dish, and culturing was carried out in Roswell Park Memorial Institute 1640 (RPMI 1640, Sigma), to which 10% fetal bovine serum (Fetal bovine serum, FBS) and 5% L-glutamine were added, for 18 hours. Culturing conditions were 37° C. and 5% CO2 unless otherwise specified. Furthermore, 1×10^6 A549 cells were plated on a 10 cm dish, and culturing was carried out in Dulbecco's modified Eagle's medium (DMEM, Sigma), to which 10% FBS and 10% L-glutamine were added, for 18 hours. The respective media were replaced, and 2 hours later 20% to 30% confluent PANC-1 or A549 cells were transfected with GST-π siRNA and/or Akt siRNA using Lipofectamine RNAiMAX (Life Technologies).
# A Lipofectamine/siRNA mixed solution for transfection was prepared as follows. First, 35 μL of Lipofectamine RNAiMAX and 965 μL of OPTI-MEM (Sigma) were mixed to thus prepare a Lipofectamine solution. […]
# as §3
# [7] = tested on: PANC-1 cells; experiment: Cell proliferation (cell counting) after siRNA knockdown in PANC-1 cells; format: cell-based; details: 10 to 50 nM siRNA tested, cell number 4 days after transfection, FIG. 1
# Protocol: as §1, §2, §3
# Sequence of Akt2 (P31751 whole entry, species assumed): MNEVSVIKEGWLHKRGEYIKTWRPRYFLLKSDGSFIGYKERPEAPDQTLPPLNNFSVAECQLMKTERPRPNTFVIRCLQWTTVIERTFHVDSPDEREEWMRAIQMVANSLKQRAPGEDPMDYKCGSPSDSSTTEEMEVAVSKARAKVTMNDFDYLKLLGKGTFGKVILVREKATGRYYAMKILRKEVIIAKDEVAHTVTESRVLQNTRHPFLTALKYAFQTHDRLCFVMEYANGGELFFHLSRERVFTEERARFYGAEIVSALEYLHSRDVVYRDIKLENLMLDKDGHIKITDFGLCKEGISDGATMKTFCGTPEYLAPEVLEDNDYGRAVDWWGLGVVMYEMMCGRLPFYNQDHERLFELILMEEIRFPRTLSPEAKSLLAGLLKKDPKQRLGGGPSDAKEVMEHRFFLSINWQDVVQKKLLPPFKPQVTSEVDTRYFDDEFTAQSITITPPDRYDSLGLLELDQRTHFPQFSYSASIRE
# Sequence of Akt1 (P31749 whole entry): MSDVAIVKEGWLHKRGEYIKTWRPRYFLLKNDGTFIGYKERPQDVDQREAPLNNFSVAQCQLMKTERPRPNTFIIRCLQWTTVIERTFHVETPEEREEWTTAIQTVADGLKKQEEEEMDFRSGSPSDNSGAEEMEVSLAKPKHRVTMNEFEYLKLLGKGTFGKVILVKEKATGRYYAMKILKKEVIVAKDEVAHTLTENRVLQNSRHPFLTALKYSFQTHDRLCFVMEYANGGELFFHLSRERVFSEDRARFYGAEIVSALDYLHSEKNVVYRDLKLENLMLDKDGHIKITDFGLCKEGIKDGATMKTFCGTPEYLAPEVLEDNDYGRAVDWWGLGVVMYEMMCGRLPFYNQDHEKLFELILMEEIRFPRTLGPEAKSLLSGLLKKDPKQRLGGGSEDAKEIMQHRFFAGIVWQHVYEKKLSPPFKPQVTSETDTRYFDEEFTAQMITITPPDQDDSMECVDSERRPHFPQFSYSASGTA
Molecule,effect on activation and phosphorylation of Akt1 [1],effect on activation and phosphorylation of Akt2 [2],inhibition of Akt3 [3],final concentration at which the cell proliferation inhibition effect almost reaches a plateau [4] [nM],autophagy (shift of LC3 type I to type II) [5],dead cells (floating cells) [6],final concentration at which the cell proliferation inhibition effect almost reaches a plateau [7] [nM]
"O=c1[nH]c2ccccc2n1C1CCN(Cc2ccc(-c3nc4cc5[nH]cnc5cc4nc3-c3ccccc3)cc2)CC1 [Akt Inhibitor VIII, 1,3-Dihydro-1-(1-((4-(6-phenyl-1H-imidazo[4,5-g]quinoxalin-7-yl)phenyl)methyl)-4-piperidinyl)-2H-benzimidazol-2-one]",selectively blocks activation and phosphorylation,selectively blocks activation and phosphorylation,does not inhibit,–,–,–,–
"GST-π siRNA: siRNA against GST-π; sense GGGAGGCAAGACCUUCAUUtt (SEQ ID No: 1), antisense AAUGAAGGUCUUGCCUCCCtg (SEQ ID No: 2) (sense GGGAGGCAAGACCUUCAUUTT; antisense AAUGAAGGUCUUGCCUCCCTG; chemistry not given here)",–,–,–,~30,autophagy induced,a large number of floating cells (dead cells),~30
